In patent US10995099B2, “Compounds and their uses as ACC inhibitors” (NANJING RUIJIE PHARMATECH CO., LTD., priority 2017, dated 2021):
Like-named read-outs stand apart in the source and are kept apart here.

How the values were obtained:
[1] = tested on: HepG2; test: EC50 in HepG2; assay type: cell-based
[2] = molecular target: ACC2 (Homo sapiens (Human), UniProt O00763); test: In vitro ACC inhibition assay (ADP-Glo), ACC2; assay type: biochemical
Description: (§1) Compounds of the present invention were evaluated in an in vitro ACC inhibition assay as described by Harwood, et al, 2003, the entirety of which is incorporated herein by reference.
(§2) In Vitro Acetyl-CoA Carboxylase (ACC) Inhibition Assay
(§3) An exemplary procedure for the in vitro ACC inhibition assay, which can be used to determine the inhibitory action of compounds of the invention toward either ACC1 or ACC2, follows. The ADP-Glo™ Kinase Assay kit from Promega was used. The ADP-Glo™ Kinase Assay is a luminescent ADP detection assay to measure enzymatic activity by quantifying the amount of ADP produced during an enzyme reaction. The assay is performed in two steps; first, after the enzyme reaction, an equal volume of ADP-Glo™ Reagent is added to terminate the reaction and deplete the remaining ATP. Second, the Kinase Detection Reagent is added to simultaneously convert ADP to ATP and allow the newly synthesized ATP to be measured using a luciferase/luciferin reaction. Luminescence can be correlated to ADP concentrations by using an ATP-to-ADP conversion curve. The detailed procedure is as follows. 50 μL of the compound being tested (600 uM in DMSO) was added to a 384-well dilution plate. The compound was diluted 1:3 in succession in DMSO for each row for 11 wells. 0.5 μL ACC2 working solution was added to 384-well white Optiplate assay plate. 0.5 μL diluted compound solution in each column from step 2 to assay plate, each row containing 2 replicates. […] The plates were incubated at room temperature for 15 minutes. 5 μL substrate working solution was added to each well to initiate reaction. Final ACC2 reaction concentrations consist of: 5 nM ACC2, 20 μM ATP, 20 μM acetyl-CoA, 12 mM NaHCO3, 0.01% Brij35, 2 mM DTT, 5% DMSO, test compound concentrations: 30 μM, 10 μM, 3.33 μM, 1.11 μM, 0.37 μM, 0.123 μM, 0.0411 μM, 0.0137 μM, 0.00457 μM, 0.00152 μM, and 0.00051 μM. Plates were incubated at room temperature for 60 minutes. 10 μL ADP glo reagent was added. Plates were incubated at room temperature for 40 minutes. 20 μL kinase detection reagent was added. Plates were incubated at room temperature for 40 minutes, then read on a Perkin Elmer EnVision 2104 plate reader for luminescence as Relative Light Units (RLU).
(§4) Data for each concentration, as well as the positive and negative controls were averaged, and the standard deviation calculated. Percent inhibition was calculated by the formula: 100×(average negative control-compound)/(average negative control-average positive control). The IC50 for each compound was calculated by fitting the data with a non-linear regress ion equation: Y=Bottom+(Top−Bottom)/(1+10((Log IC50−X* HillSlope)), where X is the log of compound concentration and Y is percent inhibition.

[3] = molecular target: ACC1 (Homo sapiens (Human), UniProt Q13085); test: In vitro ACC inhibition assay (ADP-Glo), ACC1; assay type: biochemical
Description: as §1, §2, §3, §4

[4] = HepG2, read-out: EC50 (μM) HepG2
[5] = 5 nM ACC2, 20 μM ATP, 20 μM acetyl-CoA, read-out: IC50 (μM) ACC2
[6] = ND630 versus RJ compounds, read-out: EC50 (μM) ND630/RJ-cmps(%)
[7] = ND630 versus RJ compounds, isoform not given, read-out: IC50 (μM) ND630/RJ-cmps(%)
[8] = Homo sapiens, HepG2, read-out: EC50 (μM) HepG2

Sequence of ACC2 (O00763 whole entry, species assumed): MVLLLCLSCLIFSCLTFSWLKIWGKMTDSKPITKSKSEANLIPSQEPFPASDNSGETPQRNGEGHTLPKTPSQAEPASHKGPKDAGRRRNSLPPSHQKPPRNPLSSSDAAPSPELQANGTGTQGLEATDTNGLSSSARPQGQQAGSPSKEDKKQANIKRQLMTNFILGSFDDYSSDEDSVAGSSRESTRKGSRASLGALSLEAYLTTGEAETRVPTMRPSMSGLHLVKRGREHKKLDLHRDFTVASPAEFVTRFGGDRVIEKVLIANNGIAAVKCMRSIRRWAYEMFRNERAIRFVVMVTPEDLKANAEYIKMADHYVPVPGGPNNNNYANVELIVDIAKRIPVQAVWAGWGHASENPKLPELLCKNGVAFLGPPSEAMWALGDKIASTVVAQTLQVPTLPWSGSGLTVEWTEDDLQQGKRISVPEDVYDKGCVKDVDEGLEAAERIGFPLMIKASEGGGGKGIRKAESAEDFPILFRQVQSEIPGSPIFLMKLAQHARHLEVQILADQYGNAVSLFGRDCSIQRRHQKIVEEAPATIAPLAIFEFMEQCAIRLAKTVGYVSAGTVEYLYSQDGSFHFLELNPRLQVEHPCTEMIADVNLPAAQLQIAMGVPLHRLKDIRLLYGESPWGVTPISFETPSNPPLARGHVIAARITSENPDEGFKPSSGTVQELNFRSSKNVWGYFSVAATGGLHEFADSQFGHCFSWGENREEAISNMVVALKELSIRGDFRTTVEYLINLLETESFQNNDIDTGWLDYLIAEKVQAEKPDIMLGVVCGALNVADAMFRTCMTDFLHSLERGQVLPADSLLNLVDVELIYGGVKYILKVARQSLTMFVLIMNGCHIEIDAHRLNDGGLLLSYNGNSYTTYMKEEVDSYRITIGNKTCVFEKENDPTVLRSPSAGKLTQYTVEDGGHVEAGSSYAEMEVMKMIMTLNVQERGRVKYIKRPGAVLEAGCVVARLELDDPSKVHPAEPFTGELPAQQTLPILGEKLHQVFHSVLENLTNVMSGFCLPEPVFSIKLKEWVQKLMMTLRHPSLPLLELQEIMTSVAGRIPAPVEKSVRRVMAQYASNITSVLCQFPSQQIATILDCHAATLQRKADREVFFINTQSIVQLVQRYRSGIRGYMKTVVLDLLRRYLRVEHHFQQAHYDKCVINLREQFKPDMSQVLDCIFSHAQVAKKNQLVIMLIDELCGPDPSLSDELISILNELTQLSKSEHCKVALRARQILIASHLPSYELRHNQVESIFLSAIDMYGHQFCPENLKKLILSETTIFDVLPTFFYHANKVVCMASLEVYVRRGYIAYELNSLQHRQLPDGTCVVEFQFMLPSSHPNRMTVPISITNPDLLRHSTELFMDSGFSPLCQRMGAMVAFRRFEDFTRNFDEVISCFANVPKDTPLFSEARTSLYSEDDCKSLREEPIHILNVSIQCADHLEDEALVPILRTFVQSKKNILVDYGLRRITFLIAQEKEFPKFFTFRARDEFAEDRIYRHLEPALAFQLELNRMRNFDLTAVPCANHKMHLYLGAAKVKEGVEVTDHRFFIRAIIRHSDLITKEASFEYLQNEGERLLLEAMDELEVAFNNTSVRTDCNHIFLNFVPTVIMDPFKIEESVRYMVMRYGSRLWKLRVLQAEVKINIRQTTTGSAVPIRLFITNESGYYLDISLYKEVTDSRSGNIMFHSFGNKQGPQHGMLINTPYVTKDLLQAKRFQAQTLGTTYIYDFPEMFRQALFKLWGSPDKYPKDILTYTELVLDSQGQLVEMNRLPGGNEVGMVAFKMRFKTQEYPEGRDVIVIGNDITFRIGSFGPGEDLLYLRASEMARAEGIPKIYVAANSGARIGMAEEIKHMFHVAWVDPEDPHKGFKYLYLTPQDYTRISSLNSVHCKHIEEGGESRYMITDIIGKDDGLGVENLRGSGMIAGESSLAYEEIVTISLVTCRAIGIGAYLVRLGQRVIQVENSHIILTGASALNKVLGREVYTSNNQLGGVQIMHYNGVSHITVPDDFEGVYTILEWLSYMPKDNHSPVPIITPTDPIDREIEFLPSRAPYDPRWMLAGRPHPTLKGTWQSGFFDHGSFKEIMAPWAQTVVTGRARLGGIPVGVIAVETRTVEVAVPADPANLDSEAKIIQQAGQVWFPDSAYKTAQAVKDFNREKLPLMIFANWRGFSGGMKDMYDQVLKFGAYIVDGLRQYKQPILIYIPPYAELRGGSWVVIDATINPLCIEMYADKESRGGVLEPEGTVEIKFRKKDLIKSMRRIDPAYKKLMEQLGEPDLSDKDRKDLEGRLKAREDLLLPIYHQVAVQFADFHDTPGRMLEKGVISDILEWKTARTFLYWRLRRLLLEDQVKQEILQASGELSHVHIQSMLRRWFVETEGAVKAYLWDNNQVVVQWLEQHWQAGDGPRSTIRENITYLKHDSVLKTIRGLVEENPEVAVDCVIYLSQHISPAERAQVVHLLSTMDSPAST

| Structure (SMILES) | EC50 [1, 4] | IC50 [2, 5] | EC50 [1, 6] | IC50 [2, 7] | IC50 [3] | EC50 [1, 8] | EC50 ([1]; Homo sapiens, ND630 versus RJ compounds, read-out: EC50 (μM) ND630/RJ-cmps(%)) |
| --- | --- | --- | --- | --- | --- | --- | --- |
| COCCNC(=O)CC1(n2c(=O)c3c(C)c(-c4ncco4)sc3n(CC(OC3CCOCC3)c3ccccc3OC)c2=O)CC1 (stereo not shown) [Example 65] | > 1 µM | 0.01 to 0.1 µM | – | – | – | – | – |
| COc1ccccc1C(Cn1c(=O)n(C2(C(N)=O)CCCC2)c(=O)c2c(C)c(Br)sc21)OC1CCOCC1 (stereo not shown) [Example 48] | 0.1 to 1 µM | < 0.01 µM | > 1 µM | 0.003 to 0.005 µM | – | – | – |
| COc1ccccc1[C@H](Cn1c(=O)n(C2(C(N)=O)CC2)c(=O)c2c(C)c(Br)sc21)OC1CCOCC1 [Example 58] | > 1 µM | 0.01 to 0.1 µM | – | > 0.01 µM | 0.01 to 0.05 µM | – | – |
| COc1ccccc1C(Cn1c(=O)n(C2(C(=O)O)CC2)c(=O)c2c(C)c(Br)sc21)OC1CCOCC1 (stereo not shown) [Example 4, 1-(6-bromo-1-(2-(2-methoxyphenyl)-2-(tetrahydro-2H-pyran-4-yloxy)ethyl)-5-methyl-2,4-dioxo-1,2-dihydrothieno[2,3-d]pyrimidin-3(4H)-yl)cyclopropanecarboxylic Acid] | – | 0.01 to 0.1 µM | – | 0.005 to 0.01 µM | – | 0.01 to 0.1 µM | – |
| COc1ccccc1[C@H](Cn1c(=O)n(C2(CC(N)=O)CC2)c(=O)c2c(C)c(Br)sc21)OC1CCOCC1 [Example 60] | – | 0.01 to 0.1 µM | – | > 0.01 µM | 0.01 to 0.05 µM | – | – |
| COc1ccccc1[C@H](Cn1c(=O)n(C2(CC(=O)O)CC2)c(=O)c2c(C)c(Br)sc21)OC1CCOCC1 [Example 59] | – | 0.01 to 0.1 µM | – | > 0.01 µM | 0.01 to 0.05 µM | – | – |
| CNC(=O)C1(n2c(=O)c3cc(Br)sc3n(C[C@H](OC3CCOCC3)c3ccccc3OC)c2=O)CC1 [Example 57] | 0.1 to 1 µM | 0.1 to 1 µM | – | 0.005 to 0.01 µM | – | – | – |
| COc1ccccc1C(Cn1c(=O)n(C2(C(=O)O)CCC2)c(=O)c2c(C)c(-c3ncco3)sc21)OC1CCOCC1 (stereo not shown) [Example 26] | – | < 0.01 µM | 0.1 to 1 µM | 0.003 to 0.005 µM | – | – | – |
| COC(=O)C1(n2c(=O)c3c(C)c(Br)sc3n(C[C@H](OC3CCOCC3)c3ccccc3OC)c2=O)CCC1 [Example 67] | – | 0.1 to 1 µM | – | > 0.01 µM | > 0.05 µM | – | – |
| COc1ccccc1[C@H](Cn1c(=O)n(C2(C(=O)O)CC2)c(=O)c2c(C)c(-n3nccn3)sc21)OC1CCOCC1 [Example 49] | 0.1 to 1 µM | < 0.01 µM | 0.1 to 1 µM | 0.003 to 0.005 µM | – | – | – |
| CNC(=O)C1(n2c(=O)c3c(C)c(Br)sc3n(CC(OC3CCOCC3)c3ccccc3OC)c2=O)CCCC1 (stereo not shown) [Example 50] | – | 0.01 to 0.1 µM | 0.1 to 1 µM | 0.003 to 0.005 µM | – | – | – |
| COc1ccccc1[C@H](Cn1c(=O)n(C2(C(=O)O)CC2)c(=O)c2c(C)c(-n3cncn3)sc21)OC1CCOCC1 [Example 56] | – | 0.1 to 1 µM | – | 0.005 to 0.01 µM | – | – | – |
| COc1ccccc1C(O)Cn1c(=O)n(C(C)(C)C(=O)O)c(=O)c2cc(C)c(-c3ncco3)cc21 (stereo not shown) [Example 13] | – | > 1 µM | 0.01 to 0.1 µM | 0.005 to 0.01 µM | – | – | – |
| COc1ccccc1[C@H](Cn1c(=O)n(C(C)(C)C(=O)OC(C)(C)C)c(=O)c2c(C)c(-c3ncco3)sc21)OC1CCOCC1 [Example 66] | – | 0.01 to 0.1 µM | – | > 0.01 µM | 0.001 to 0.01 µM | – | – |
| COc1ccccc1C(Cn1c(=O)n(C2(C(=O)O)CC2)c(=O)c2c(C)c(-c3ncco3)sc21)OC1CCOCC1 (stereo not shown) [Example 3, 1-[1-[2-(2-methoxyphenyl)-2-tetrahydropyran-4-yloxy-ethyl]-5-methyl-6-oxazol-2-yl-2,4-dioxo-thieno[2,3-d]pyrimidin-3-yl]cyclopropanecarboxylic acid] | – | 0.01 to 0.1 µM | – | 0.005 to 0.01 µM | – | 0.01 to 0.1 µM | > 1 µM |

More lines, now with the values ahead:

| EC50 [1, 4] | IC50 [2, 5] | EC50 [1, 6] | IC50 [2, 7] | IC50 [3] | EC50 [1, 8] | EC50 ([1]; Homo sapiens, ND630 versus RJ compounds, read-out: EC50 (μM) ND630/RJ-cmps(%)) | Structure (SMILES) |
| --- | --- | --- | --- | --- | --- | --- | --- |
| – | > 1 µM | 0.01 to 0.1 µM | 0.005 to 0.01 µM | – | – | – | COc1ccccc1C(Cn1c(=O)n(C(C)(C)C(=O)O)c(=O)c2cc(C)c(-c3ncco3)cc21)OC1CCOCC1 (stereo not shown) [Example 11] |
| > 1 µM | 0.1 to 1 µM | > 1 µM | 0.005 to 0.01 µM | – | – | – | COc1ccccc1[C@H](Cn1c(=O)n(C(C)(C)C(=O)O)c(=O)c2c(C)c(-c3nnco3)sc21)OC1CCOCC1 [Example 9] |
| – | > 1 µM | 0.1 to 1 µM | 0.003 to 0.005 µM | – | – | – | COCc1sc2c(c1C)c(=O)n(C1(C(=O)O)CCCC1)c(=O)n2C[C@H](CC1CCOCC1)c1ccccc1OC [Example 27] |
| 0.01 to 0.1 µM | < 0.01 µM | > 1 µM | 0.003 to 0.005 µM | 0.001 to 0.01 µM | – | – | CNC(=O)C1(n2c(=O)c3c(C)c(-c4ncco4)sc3n(CC(OC3CCOCC3)c3ccccc3OC)c2=O)CCC1 (stereo not shown) [Example 53] |
| 0.1 to 1 µM | 0.01 to 0.1 µM | > 1 µM | 0.005 to 0.01 µM | – | – | – | COc1ccccc1C(Cn1c(=O)n(C(C)(C)C(=O)O)c(=O)c2c(C)c(Br)sc21)OC1CCOCC1 (stereo not shown) [Example 10] |
| – | < 0.01 µM | 0.1 to 1 µM | 0.003 to 0.005 µM | – | – | – | COc1ccccc1C(Cn1c(=O)n(C2(C(=O)O)CCCC2)c(=O)c2c(C)c(-c3ncco3)sc21)OC1CCOCC1 (stereo not shown) [Example 25] |
| > 1 µM | 0.01 to 0.1 µM | > 1 µM | 0.005 to 0.01 µM | – | – | – | COc1ccccc1[C@H](Cn1c(=O)n(C2(C(=O)O)CC2)c(=O)c2c(C)c(-c3cnco3)sc21)OC1CCOCC1 [Example 80] |
| – | > 1 µM | 0.1 to 1 µM | 0.003 to 0.005 µM | – | – | – | COc1ccccc1[C@H](Cn1c(=O)n(C2(C(=O)O)CCC2)c(=O)c2c(C)c(CN)sc21)OC1CCOCC1 [Example 34] |
| – | > 1 µM | – | 0.005 to 0.01 µM | – | – | – | COc1ccccc1[C@H](Cn1c(=O)n(C2(C(=O)O)CC2)c(=O)c2c(C)csc21)OC1CCOCC1 [Example 17] |
| – | 0.1 to 1 µM | 0.1 to 1 µM | 0.003 to 0.005 µM | – | – | – | COc1ccccc1[C@@H](Cn1c(=O)n(C2(C(=O)O)CC2)c(=O)c2c(C)c(-c3ncco3)sc21)OC1CCOCC1 [Example 28] |
| 0.1 to 1 µM | > 1 µM | 0.01 to 0.1 µM | 0.005 to 0.01 µM | – | – | – | COc1ccccc1[C@H](Cn1c(=O)n(C2(C(=O)O)CC2)c(=O)c2cc(-c3ncco3)ccc21)OC1CCOCC1 [Example 39] |
| 0.01 to 0.1 µM | 0.01 to 0.1 µM | > 1 µM | 0.005 to 0.01 µM | – | – | – | COc1ccccc1C(Cn1c(=O)n(C2(CC(=O)O)CC2)c(=O)c2c(C)c(-c3ncco3)sc21)OC1CCOCC1 (stereo not shown) [Example 82] |
| > 1 µM | 0.01 to 0.1 µM | > 1 µM | 0.005 to 0.01 µM | – | – | – | COc1ccccc1[C@H](Cn1c(=O)n(C(C)(C)C(=O)O)c(=O)c2c(C)c(-c3ncco3)sc21)OC1CCOCC1 [Example 8] |
| – | 0.1 to 1 µM | 0.1 to 1 µM | 0.003 to 0.005 µM | – | – | – | COc1ccccc1[C@@H](Cn1c(=O)n(C2(C(=O)O)CC2)c(=O)c2c(C)c(Br)sc21)OC1CCOCC1 [Example 32] |
| – | 0.1 to 1 µM | – | > 0.01 µM | > 0.05 µM | – | – | COc1ccccc1[C@H](Cn1c(=O)n(C(C)(C)C(=O)OC(C)(C)C)c(=O)c2c(C)c(Br)sc21)OC1CCOCC1 [Example 68] |
| 0.1 to 1 µM | < 0.01 µM | > 1 µM | 0.005 to 0.01 µM | – | – | – | COc1ccccc1[C@H](Cn1c(=O)n(C2(C(=O)O)CC2)c(=O)c2c(C)c(-n3cccn3)sc21)OC1CCOCC1 [Example 45] |
| – | 0.1 to 1 µM | 0.1 to 1 µM | 0.003 to 0.005 µM | – | – | – | COc1ccccc1C(Cn1c(=O)n(C2(CC(=O)N3CCOCC3)CC2)c(=O)c2c(C)c(Br)sc21)OC1CCOCC1 (stereo not shown) [Example 23] |
| – | > 1 µM | 0.01 to 0.1 µM | 0.005 to 0.01 µM | – | – | – | COc1ccccc1C(Cn1c(=O)n(C(C)(C)C(=O)O)c(=O)c2cc(C)c(Br)cc21)OC1CCOCC1 (stereo not shown) [Example 12] |
